The values below come from ChEMBL document CHEMBL1201862, “PubChem BioAssay data set” (2004).

Structures are written as SMILES.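 Results reflect a 48-hour exposure of cells in 96-well plates to compound at five concentrations. GI50 marks 50% less growth.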 Active and inactive are the calls of the source. Rule as the data show it: active = GI50 up to about 1.1 µM and inactive = higher.

Some test systems named below: ACHN; EKVX; HCC 2998; HOP-92; Hs-578T; LOX IMVI; MCF7; MDA-MB-435; MDA-N; Malme-3M; OVCAR-3; OVCAR-5; OVCAR-8; PC-3; SF-268; SF-295; SR; SW-620; TK-10; UO-31.
Common to all, as to assay: DTP human tumour cell line panel, 48 h

In general, GI50 refers to the concentration giving 50% growth inhibition. `COc1ccc(C[C@@H]2OC3(C=CC(=O)C=C3)O[C@H]2Cc2ccc(OC)cc2)cc1`: the GI50 is 0.405 µM (active) with ACHN; 1.89 µM (inactive) with EKVX; 1.52 µM (inactive) with HCC 2998; 0.653 µM (active) with HOP-92; 0.971 µM (active) in the assay on Hs-578T; 0.172 µM (active) in the assay with LOX IMVI. For the same compound, the concentration for 50% growth inhibition (GI50) in the assay with MCF7 was 0.558 µM (active); in the assay with MDA-MB-435, 1.53 µM (inactive); with MDA-N, 0.476 µM (active); in the assay on Malme-3M, 1.51 µM (inactive); in the assay on OVCAR-3 it was 0.673 µM (active); in the assay on OVCAR-5, 0.832 µM (active). For the same compound, the GI50 in the assay with OVCAR-8 was 0.193 µM (active); with PC-3, 1.33 µM (inactive); in the assay with SF-268 it was 0.771 µM (active); in the assay on SF-295, 2.99 µM (inactive); in the assay with SR, 0.176 µM (active); in the assay on SW-620 it was 0.114 µM (active). For the same compound, the values for the GI50 in the assay with TK-10 and with UO-31 were 0.281 µM (active) and 0.29 µM (active), respectively.
In the case of `N#CN1C2CCC1CC(=O)C2`, the GI50 in the assay with ACHN, in the assay on EKVX, with HCC 2998, in the assay on HOP-92, in the assay on Hs-578T and in the assay with LOX IMVI was > 100 µM (inactive) in each case. For the same compound, the GI50 in the assay with MCF7, in the assay with MDA-MB-435, in the assay on MDA-N, in the assay on Malme-3M, in the assay on OVCAR-3 and in the assay with OVCAR-5 was > 100 µM (inactive) throughout. Moreover, the GI50 with OVCAR-8, in the assay with PC-3, in the assay with SF-268, in the assay on SF-295, in the assay on SR and in the assay with SW-620 was > 100 µM (inactive) throughout. The GI50 with TK-10 and with UO-31 was > 100 µM (inactive) in each case.
As for `CN(C)CCC(=O)N1C/C(=C\c2ccc(Cl)c(Cl)c2)C(=O)/C(=C/c2ccc(Cl)c(Cl)c2)C1`, the GI50 in the assay on ACHN was 0.329 µM (active); in the assay on EKVX, 0.565 µM (active); in the assay on HCC 2998, 0.321 µM (active); in the assay on HOP-92 it was 0.394 µM (active); with Hs-578T, 0.257 µM (active); in the assay on LOX IMVI, 0.1 µM (active). Also, the GI50 with MCF7 is 0.14 µM (active); in the assay with MDA-MB-435, 0.347 µM (active); with MDA-N it was 0.213 µM (active); in the assay on Malme-3M, 0.64 µM (active); in the assay with OVCAR-3 it was 0.448 µM (active); in the assay with OVCAR-5, 0.731 µM (active). Also, the GI50 in the assay with OVCAR-8 is 0.265 µM (active); in the assay on PC-3, 0.102 µM (active); in the assay on SF-268, 0.309 µM (active); in the assay on SF-295, 0.274 µM (active); in the assay on SR, 0.0746 µM (active); with SW-620, 0.102 µM (active). For the same compound, the figures for the GI50 with TK-10 and with UO-31 were 0.625 µM (active) and 0.336 µM (active), respectively.
For `CCN(CC)CCCNc1nncc2c(C)c3[nH]c4ccc(OC)cc4c3cc12`, the GI50 in the assay with ACHN was 1.08 µM (active); in the assay with EKVX, 2.11 µM (inactive); in the assay on HCC 2998 it was 0.65 µM (active); in the assay with HOP-92, 0.369 µM (active); with Hs-578T, 0.482 µM (active); in the assay with LOX IMVI it was 0.189 µM (active). Also, the concentration for 50% growth inhibition (GI50) is 0.0975 µM (active) in the assay with MCF7; 1.11 µM (active) with MDA-MB-435; 0.695 µM (active) in the assay on MDA-N; 0.916 µM (active) in the assay on Malme-3M; 0.604 µM (active) with OVCAR-3; 1.25 µM (inactive) in the assay with OVCAR-5. Also, the GI50 with OVCAR-8 was 0.182 µM (active); with PC-3 it was 0.358 µM (active); in the assay on SF-268, 0.706 µM (active); with SF-295, 1.55 µM (inactive); in the assay on SR, 0.414 µM (active); with SW-620, 0.184 µM (active). Besides, the GI50 is 2.82 µM (inactive) in the assay with TK-10 and 3.17 µM (inactive) in the assay with UO-31.
With `CCCOc1ccc(-c2nc(-c3ccc(/N=C/c4ccc(N(CCOS(C)(=O)=O)CCOS(C)(=O)=O)cc4C)cc3)cs2)cc1`, the GI50 in the assay on ACHN is 1.46 µM (inactive); in the assay on EKVX, 17.6 µM (inactive); in the assay with HCC 2998 it was 12 µM (inactive); in the assay on HOP-92 it was 24.4 µM (inactive); with Hs-578T, 29.3 µM (inactive); in the assay on LOX IMVI, 14.9 µM (inactive). Further, the GI50 is 15.2 µM (inactive) in the assay on MCF7; 33.8 µM (inactive) in the assay with MDA-MB-435; 28.7 µM (inactive) in the assay on MDA-N; 44.4 µM (inactive) in the assay with Malme-3M; 18.2 µM (inactive) in the assay on OVCAR-3; 31.9 µM (inactive) with OVCAR-5. Also, the GI50 in the assay on OVCAR-8 is 25.5 µM (inactive); in the assay with PC-3 it was 18.5 µM (inactive); in the assay with SF-268 it was 11.5 µM (inactive); in the assay with SF-295, 3.73 µM (inactive); in the assay with SR, 3.85 µM (inactive); with SW-620, 25.7 µM (inactive). Further, the values for the GI50 in the assay with TK-10 and with UO-31 were 18.8 µM (inactive) and 11.7 µM (inactive), respectively.
For the compound `Cc1ccc(C(=O)N(C2CCCCC2)C2CCCCC2)cc1/N=N/N(C)C`, the GI50 in the assay on ACHN was 8.83 µM (inactive); in the assay on EKVX it was 16.3 µM (inactive); in the assay on HCC 2998 it was 15.7 µM (inactive); in the assay with HOP-92, 11 µM (inactive); in the assay with Hs-578T, 21.3 µM (inactive); in the assay with LOX IMVI, 15.8 µM (inactive). Also, the GI50 in the assay on MCF7 was 14.9 µM (inactive); in the assay on MDA-MB-435 it was 16.2 µM (inactive); in the assay on MDA-N, 15 µM (inactive); with Malme-3M, 16.2 µM (inactive); in the assay with OVCAR-3, 6.34 µM (inactive); with OVCAR-5, 19 µM (inactive). For the same compound, the GI50 in the assay with OVCAR-8 was 8.81 µM (inactive); in the assay on PC-3, 10.4 µM (inactive); in the assay on SF-268, 10.8 µM (inactive); with SF-295 it was 11.4 µM (inactive); in the assay with SR, 18.2 µM (inactive); in the assay on SW-620, 8.83 µM (inactive). The GI50 is 9.82 µM (inactive) in the assay on TK-10 and 12.8 µM (inactive) in the assay on UO-31.
Consider `COc1ccc([N+](=O)[O-])c2c(NCCCN(C)C)c3ccccc3nc12`, for which the GI50 is 0.13 µM (active) in the assay on ACHN; 0.107 µM (active) with EKVX; < 0.0319 µM (active) in the assay with HCC 2998; 0.0782 µM (active) with HOP-92; 0.682 µM (active) in the assay with Hs-578T; 0.461 µM (active) with LOX IMVI. The GI50 with MCF7 was 0.0155 µM (active); with MDA-MB-435, 0.306 µM (active); in the assay on MDA-N, 0.425 µM (active); in the assay on Malme-3M, 0.155 µM (active); in the assay with OVCAR-3 it was 0.125 µM (active); in the assay with OVCAR-5, 0.272 µM (active). The GI50 in the assay on OVCAR-8 was 0.288 µM (active); in the assay with PC-3 it was 0.0276 µM (active); in the assay with SF-268 it was 0.236 µM (active); with SF-295 it was 0.107 µM (active); in the assay on SR, < 0.01 µM (active); with SW-620 it was 0.0929 µM (active). The results for the concentration for 50% growth inhibition (GI50) in the assay with TK-10 and in the assay with UO-31 were 0.399 µM (active) and 0.255 µM (active), respectively.
As for `O=C1CCc2cc3c(cc21)CC1(Cc2ccccc2C1)C3`, the GI50 is 19.8 µM (inactive) with ACHN; > 27.3 µM (inactive) in the assay with EKVX; 8.75 µM (inactive) in the assay with HCC 2998; 6.32 µM (inactive) with HOP-92; 52.1 µM (inactive) in the assay on Hs-578T; 8.02 µM (inactive) in the assay on LOX IMVI. In addition, the GI50 with MCF7 is 9.29 µM (inactive); in the assay with MDA-MB-435 it was 2.58 µM (inactive); in the assay with MDA-N, 2.16 µM (inactive); in the assay with Malme-3M, 16.8 µM (inactive); in the assay with OVCAR-3, 8.75 µM (inactive); in the assay with OVCAR-5, 16.3 µM (inactive). For the same compound, the GI50 was 24.9 µM (inactive) with OVCAR-8; 14.2 µM (inactive) in the assay on PC-3; 37.8 µM (inactive) with SF-268; 6.43 µM (inactive) in the assay with SF-295; 1.86 µM (inactive) with SR; 4.34 µM (inactive) in the assay with SW-620. In addition, the GI50 in the assay on TK-10 is 30.3 µM (inactive); in the assay with UO-31, 4.02 µM (inactive).
With `O=c1c2c3c(sc2nc2n1N=CN(c1ccccc1)C2)CCCC3`, the GI50 in the assay with ACHN, in the assay on EKVX, with HCC 2998, in the assay on HOP-92, with Hs-578T and in the assay on LOX IMVI was > 100 µM (inactive) in each case. Besides, the GI50 in the assay on MCF7, with MDA-MB-435, with MDA-N, with Malme-3M, in the assay on OVCAR-3 and with OVCAR-5 was > 100 µM (inactive) each time. Also, the GI50 in the assay on OVCAR-8, in the assay with PC-3, in the assay with SF-268, with SF-295, with SR and in the assay with SW-620 was > 100 µM (inactive) throughout. Also, the GI50 in the assay on TK-10 and with UO-31 was > 100 µM (inactive) in each case.
Regarding `Cc1cn([C@@H]2C[C@H](CO)[C@@H]2O)c(=O)[nH]c1=O`, the GI50 in the assay on ACHN, in the assay on EKVX, with HCC 2998, with HOP-92, in the assay on Hs-578T and in the assay on LOX IMVI was > 100 µM (inactive) each time. In addition, the GI50 in the assay with MCF7, in the assay with MDA-MB-435, with MDA-N, with Malme-3M, in the assay on OVCAR-3 and with OVCAR-5 was > 100 µM (inactive) in each case. The GI50 with OVCAR-8, with PC-3, with SF-268, in the assay with SF-295, in the assay with SR and in the assay on SW-620 was > 100 µM (inactive) throughout. Besides, the GI50 in the assay with TK-10 and in the assay with UO-31 was > 100 µM (inactive) throughout.
